Columns and labels:
[1] = target: RAF proto-oncogene serine/threonine-protein kinase (Homo sapiens, UniProt P04049, Y340D/Y341D); test: (§1) Raf IC50 Assay: Compounds disclosed herein were tested against B-Raf (V600E) (PV3849, from Invitrogen) or C-Raf (Y340D/Y341D) (PV3805, from Invitrogen) in a time-resolved fluorescence energy transfer assay. The assay was carried out in reactions (10 uL) containing 0.0625 nM B-Raf or 0.5 nM C-Raf, 25 mM Tris pH7.4, 10 mM MgCl2, 0.5 mM EGTA, 0.5 mM […], 5 mM beta-glycerophosphate, 0.01% Triton X-100, 2.5 mM DTT, 0.1% BSA, 0.1 mM ATP, 13.7 nM GST-tagged MEK1 (Full-length protein with K97R mutation, recombinant protein purified from bacterial expression system) and 0-5 uM compounds disclosed herein (final concentration of 1% DMSO). The enzyme was incubated with the compounds at room temperature for 60 minutes and the reactions were initiated by the addition of ATP and GST-MEK1. After incubating at room temperature for 60 minutes, an equal volume of stop buffer containing 25 mM Tris pH7.4, 400 mM KF, 50 mM EDTA, 0.01% BSA, 0.01% Triton X-100, 1 test of Eu3+ Cryptate-conjugated rabbit polyclonal antibody anti-Phospho MEK1/2 (Ser217/221) and 1 test of d2-conjugated mouse monoclonal antibody anti-glutathione S-transferase was added to stop the reactions. Plates were sealed and incubated at room temperature for 2 hours, and then the TR-FRET signals were read on BMG PHERAstar FS instrument. The IC50 for each compound was calculated by non linear regression by Graphpad Prism software.
[2] = target: Serine/threonine-protein kinase B-raf (Homo sapiens, UniProt P15056, V600E); test: as §1
Sequence of Serine/threonine-protein kinase B-raf (P15056 2-766 V600E limits assumed): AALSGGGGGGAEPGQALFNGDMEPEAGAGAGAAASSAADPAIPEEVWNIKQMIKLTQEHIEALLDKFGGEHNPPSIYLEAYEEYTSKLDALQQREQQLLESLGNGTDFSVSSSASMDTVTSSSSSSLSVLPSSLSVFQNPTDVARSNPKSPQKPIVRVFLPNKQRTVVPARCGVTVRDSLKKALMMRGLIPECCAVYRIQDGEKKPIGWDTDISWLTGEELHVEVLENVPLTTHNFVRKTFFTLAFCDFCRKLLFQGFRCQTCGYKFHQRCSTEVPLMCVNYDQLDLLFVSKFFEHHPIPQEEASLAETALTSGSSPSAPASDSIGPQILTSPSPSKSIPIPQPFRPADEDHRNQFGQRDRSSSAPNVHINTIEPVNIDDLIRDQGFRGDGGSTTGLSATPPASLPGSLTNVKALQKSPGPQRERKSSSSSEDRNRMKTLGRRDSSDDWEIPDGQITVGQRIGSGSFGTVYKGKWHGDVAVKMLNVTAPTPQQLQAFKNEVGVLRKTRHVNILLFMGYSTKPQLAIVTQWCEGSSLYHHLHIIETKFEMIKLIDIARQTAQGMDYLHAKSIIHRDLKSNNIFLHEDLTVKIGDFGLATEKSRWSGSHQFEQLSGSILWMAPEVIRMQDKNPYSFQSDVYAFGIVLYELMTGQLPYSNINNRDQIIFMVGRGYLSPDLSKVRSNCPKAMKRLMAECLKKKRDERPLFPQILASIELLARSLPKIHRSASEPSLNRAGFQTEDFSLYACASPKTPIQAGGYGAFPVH

Sequence of RAF proto-oncogene serine/threonine-protein kinase (P04049 whole entry Y340D/Y341D): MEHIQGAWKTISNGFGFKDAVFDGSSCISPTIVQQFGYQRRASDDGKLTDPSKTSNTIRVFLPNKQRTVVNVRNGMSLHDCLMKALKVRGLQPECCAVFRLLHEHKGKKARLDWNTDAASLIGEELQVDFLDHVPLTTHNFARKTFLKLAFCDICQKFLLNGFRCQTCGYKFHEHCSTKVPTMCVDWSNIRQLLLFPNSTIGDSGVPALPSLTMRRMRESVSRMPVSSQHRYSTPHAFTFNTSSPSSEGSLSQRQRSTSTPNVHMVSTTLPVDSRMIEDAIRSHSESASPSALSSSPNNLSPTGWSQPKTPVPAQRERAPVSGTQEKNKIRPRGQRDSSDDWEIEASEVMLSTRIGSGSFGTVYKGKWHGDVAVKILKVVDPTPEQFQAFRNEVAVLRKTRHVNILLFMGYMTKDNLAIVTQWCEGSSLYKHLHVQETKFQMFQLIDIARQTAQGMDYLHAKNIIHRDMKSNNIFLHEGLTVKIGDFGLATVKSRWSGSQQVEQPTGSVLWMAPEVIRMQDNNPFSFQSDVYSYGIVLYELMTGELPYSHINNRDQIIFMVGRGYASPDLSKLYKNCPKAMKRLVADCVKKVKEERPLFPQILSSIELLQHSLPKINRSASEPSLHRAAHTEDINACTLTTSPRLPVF

O=C1CCc2c(Oc3ccc4c(c3)C3C(O4)C3c3nc4ccc(C(F)(F)F)cc4[nH]3)ccnc2N1 (racemic)
IC50 [1]: 0.0014 µM | IC50 [2]: 0.0072 µM

O=C1CCc2c(Oc3ccc4c(c3)C3C(O4)C3c3nc4ccc(-c5ccccc5)cc4[nH]3)ccnc2N1 (racemic)
IC50 [1]: 0.081 µM | IC50 [2]: 0.232 µM

O=C1CCc2c(Oc3ccc4c(c3)C3C(C4)C3c3nc4ccc(C(F)(F)F)cc4[nH]3)ccnc2N1 (racemic)
IC50 [1]: 0.012 µM | IC50 [2]: 0.072 µM

O=C1CCc2c(Oc3ccc4c(c3)C3C(O4)C3c3nc4cccc(Cl)c4[nH]3)ccnc2N1 (racemic)
IC50 [1]: < 0.00025 µM | IC50 [2]: 0.016 µM

O=C1CCc2c(ncc(Cl)c2Oc2ccc3c(c2)C2C(O3)C2c2nc3ccc(C(F)(F)F)cc3[nH]2)N1 (racemic)
IC50 [1]: 0.432 µM | IC50 [2]: > 1 µM

O=C1CCc2c(Oc3ccc4c(c3)C3C(O4)C3c3nc4cc(Cl)c(C(F)(F)F)cc4[nH]3)ccnc2N1 (racemic)
IC50 [1]: 0.005 µM

Reference: ChEMBL document CHEMBL3886567, “Fused tricyclic compounds as Raf kinase inhibitors” (2016)
